According to US10392391B2 (Vertex Pharmaceuticals Incorporated, priority 2012, dated 2019):

target: ATR kinase (full-length ATR) (Homo sapiens (Human), UniProt Q13535); experiment: ATR inhibition assay (radioactive-phosphate incorporation); assay type: biochemical; conditions: Ki(app), 5 nM full-length ATR, 10 μM ATP, 25° C.
Procedure: Compounds were screened for their ability to inhibit ATR kinase using a radioactive-phosphate incorporation assay. Assays were carried out in a mixture of 50 mM Tris/HCl (pH 7.5), 10 mM MgCl2 and 1 mM DTT. Final substrate concentrations were 10 μM [γ-33P]ATP (3mCi 33P ATP/mmol ATP, Perkin Elmer) and 800 μM target peptide ([…]) (SEQ ID NO:1).
Assays were carried out at 25° C. in the presence of 5 nM full-length ATR. An assay stock buffer solution was prepared containing all of the reagents listed above, with the exception of ATP and the test compound of interest. 13.5 μL of the stock solution was placed in a 96 well plate followed by addition of 2 μL of DMSO stock containing serial dilutions of the test compound (typically starting from a final concentration of 15 μM with 3-fold serial dilutions) in duplicate (final DMSO concentration 7%). The plate was pre-incubated for 10 minutes at 25° C. and the reaction initiated by addition of 15 μL [γ-33P]ATP (final concentration 10 μM).
The reaction was stopped after […] by the addition of 30 μL 0.1M phosphoric acid containing 2 mM ATP. A multiscreen phosphocellulose filter 96-well plate (Millipore, Cat no. MAPHN0B50) was pretreated with 100 μL 0.2M phosphoric acid prior to the addition of […] of the stopped assay mixture. The plate was washed with 5×200 μL 0.2M phosphoric acid. After drying, 100 μL Optiphase ‘SuperMix’ liquid scintillation cocktail (Perkin Elmer) was added to the well prior to scintillation counting (1450 Microbeta Liquid Scintillation Counter, Wallac).
After removing mean background values for all of the data points, Ki(app) data were calculated from non-linear regression analysis of the initial rate data using the Prism software package (GraphPad Prism version 3.0cx for Macintosh, GraphPad Software, San Diego Calif., USA).

Chain of ATR kinase (full-length ATR) (Q13535 whole entry): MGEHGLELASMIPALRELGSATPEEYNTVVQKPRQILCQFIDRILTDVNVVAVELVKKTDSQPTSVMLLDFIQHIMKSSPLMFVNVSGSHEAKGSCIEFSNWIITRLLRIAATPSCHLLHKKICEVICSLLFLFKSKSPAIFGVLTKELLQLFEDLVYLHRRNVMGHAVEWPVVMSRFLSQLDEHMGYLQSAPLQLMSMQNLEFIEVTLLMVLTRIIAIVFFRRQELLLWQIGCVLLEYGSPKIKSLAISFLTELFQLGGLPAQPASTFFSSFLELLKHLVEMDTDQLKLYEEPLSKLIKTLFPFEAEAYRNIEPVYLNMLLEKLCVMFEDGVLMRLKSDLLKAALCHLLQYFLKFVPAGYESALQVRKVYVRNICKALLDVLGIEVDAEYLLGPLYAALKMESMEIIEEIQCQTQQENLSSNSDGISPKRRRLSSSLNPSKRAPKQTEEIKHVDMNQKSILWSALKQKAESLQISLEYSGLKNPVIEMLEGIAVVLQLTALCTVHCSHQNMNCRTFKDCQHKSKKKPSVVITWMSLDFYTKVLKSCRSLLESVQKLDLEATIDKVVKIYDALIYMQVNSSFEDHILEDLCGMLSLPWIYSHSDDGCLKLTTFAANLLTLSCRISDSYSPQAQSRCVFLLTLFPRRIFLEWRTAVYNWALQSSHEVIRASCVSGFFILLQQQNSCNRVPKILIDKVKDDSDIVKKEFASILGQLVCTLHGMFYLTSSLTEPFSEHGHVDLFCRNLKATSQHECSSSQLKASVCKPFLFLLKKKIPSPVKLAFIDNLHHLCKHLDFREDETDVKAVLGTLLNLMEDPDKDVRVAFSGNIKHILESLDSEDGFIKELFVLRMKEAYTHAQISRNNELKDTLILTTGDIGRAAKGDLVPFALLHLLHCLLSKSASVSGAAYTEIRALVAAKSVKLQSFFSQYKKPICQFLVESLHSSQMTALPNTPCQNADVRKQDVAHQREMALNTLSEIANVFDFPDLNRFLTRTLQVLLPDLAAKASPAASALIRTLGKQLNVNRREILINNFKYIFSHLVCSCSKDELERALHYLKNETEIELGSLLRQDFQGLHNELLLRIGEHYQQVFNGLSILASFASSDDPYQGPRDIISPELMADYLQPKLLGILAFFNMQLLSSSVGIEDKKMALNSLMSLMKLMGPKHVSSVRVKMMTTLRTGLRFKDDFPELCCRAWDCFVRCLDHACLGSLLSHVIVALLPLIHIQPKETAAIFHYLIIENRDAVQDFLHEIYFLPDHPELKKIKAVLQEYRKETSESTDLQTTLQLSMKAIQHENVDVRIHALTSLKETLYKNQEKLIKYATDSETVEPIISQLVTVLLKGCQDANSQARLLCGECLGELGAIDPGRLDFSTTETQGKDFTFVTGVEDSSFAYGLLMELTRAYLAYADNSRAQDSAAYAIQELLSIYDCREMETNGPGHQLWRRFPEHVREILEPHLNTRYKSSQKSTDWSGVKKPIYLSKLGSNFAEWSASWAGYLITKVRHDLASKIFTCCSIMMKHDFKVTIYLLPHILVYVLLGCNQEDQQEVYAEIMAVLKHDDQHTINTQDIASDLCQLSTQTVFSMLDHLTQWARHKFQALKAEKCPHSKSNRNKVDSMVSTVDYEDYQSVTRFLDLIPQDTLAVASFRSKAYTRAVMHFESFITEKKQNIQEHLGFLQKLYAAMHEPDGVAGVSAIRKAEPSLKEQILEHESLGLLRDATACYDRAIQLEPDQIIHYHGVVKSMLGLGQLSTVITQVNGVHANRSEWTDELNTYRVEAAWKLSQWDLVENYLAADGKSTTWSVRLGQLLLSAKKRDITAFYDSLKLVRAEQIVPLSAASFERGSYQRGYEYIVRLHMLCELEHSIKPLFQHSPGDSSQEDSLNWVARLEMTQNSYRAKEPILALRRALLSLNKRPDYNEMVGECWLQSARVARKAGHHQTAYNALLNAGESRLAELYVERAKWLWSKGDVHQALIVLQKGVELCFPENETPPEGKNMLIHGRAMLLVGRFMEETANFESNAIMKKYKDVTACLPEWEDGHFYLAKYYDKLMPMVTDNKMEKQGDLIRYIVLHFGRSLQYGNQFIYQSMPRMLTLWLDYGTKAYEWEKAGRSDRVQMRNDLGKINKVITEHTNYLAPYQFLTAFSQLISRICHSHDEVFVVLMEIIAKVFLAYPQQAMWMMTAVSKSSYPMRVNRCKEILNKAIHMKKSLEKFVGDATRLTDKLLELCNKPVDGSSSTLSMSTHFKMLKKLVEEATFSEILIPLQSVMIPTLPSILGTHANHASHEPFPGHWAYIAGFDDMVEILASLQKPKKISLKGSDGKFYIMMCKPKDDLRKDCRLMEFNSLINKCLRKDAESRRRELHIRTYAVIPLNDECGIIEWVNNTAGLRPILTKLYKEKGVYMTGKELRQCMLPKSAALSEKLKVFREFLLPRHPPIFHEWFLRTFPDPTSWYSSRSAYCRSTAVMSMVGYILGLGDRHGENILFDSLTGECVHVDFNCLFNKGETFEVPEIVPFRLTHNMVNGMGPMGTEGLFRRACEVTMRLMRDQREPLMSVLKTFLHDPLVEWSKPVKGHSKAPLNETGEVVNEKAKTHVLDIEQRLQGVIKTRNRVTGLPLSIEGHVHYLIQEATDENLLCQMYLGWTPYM

Compound	Ki
Nc1nn2cc(F)cnc2c1C(=O)Nc1cncc(Cl)c1N1CCNCC1 [I-N-126, 2-amino-N-(5-chloro-4-(piperazin-1-yl)pyridin-3-yl)-6-fluoropyrazolo[1,5-a]pyrimidine-3-carboxamide]	10 to 1000 nM
Cc1cccnc1-c1ccncc1NC(=O)c1c(N)nn2cc(F)cnc12 [I-C-36, 2-amino-6-fluoro-N-(3-methyl-[2,4′-bipyridin]-3′-yl)pyrazolo[1,5-a]pyrimidine-3-carboxamide]	10 to 1000 nM
Nc1nn2cc(F)cnc2c1C(=O)Nc1cncc(F)c1N1CCN(C(=O)CN2CCC2)CC1 [I-N-160, 2-amino-N-(4-(4-(2-(azetidin-1-yl)acetyl)piperazin-1-yl)-5-fluoropyridin-3-yl)-6-fluoropyrazolo[1,5-a]pyrimidine-3-carboxamide]	10 to 1000 nM
Nc1nn2cc(F)cnc2c1C(=O)Nc1cncc(F)c1N1CCC(C(=O)N2CC3(COC3)C2)CC1 [I-G-72, N-(4-(4-(2-oxa-6-azaspiro[3.3]heptane-6-carbonyl)piperidin-1-yl)-5-fluoropyridin-3-yl)-2-amino-6-fluoropyrazolo[1,5-a]pyrimidine-3-carboxamide]	10 to 1000 nM
CC(C)N1CCN(c2ccncc2NC(=O)c2c(N)nn3cc(Cl)cnc23)CC1 [I-N-39, 2-amino-6-chloro-N-(4-(4-isopropylpiperazin-1-yl)pyridin-3-yl)pyrazolo[1,5-a]pyrimidine-3-carboxamide]	10 to 1000 nM
Cc1ccncc1-c1ccncc1NC(=O)c1c(N)nn2cc(F)cnc12 [I-C-30, 2-amino-6-fluoro-N-(4-methyl-[3,4′-bipyridin]-3′-yl)pyrazolo[1,5-a]pyrimidine-3-carboxamide]	10 to 1000 nM
C[C@@H]1CN(C2COC2)CCN1c1ccncc1NC(=O)c1c(N)nn2cc(F)cnc12 [I-N-23, (R)-2-amino-6-fluoro-N-(4-(2-methyl-4-(oxetan-3-yl)piperazin-1-yl)pyridin-3-yl)pyrazolo[1,5-a]pyrimidine-3-carboxamide]	10 to 1000 nM
Nc1nn2cc(F)cnc2c1C(=O)Nc1cncc2c1CCNC2 [I-C-7, 2-amino-6-fluoro-N-(5,6,7,8-tetrahydro-2,7-naphthyridin-4-yl)pyrazolo[1,5-a]pyrimidine-3-carboxamide]	10 to 1000 nM
Nc1nn2cc(F)cnc2c1C(=O)Nc1cnccc1N1CCN2C(=O)COCC2C1 (stereo not shown) [I-N-136, 2-amino-6-fluoro-N-(4-(4-oxohexahydropyrazino[2,1-c][1,4]oxazin-8(1H)-yl)pyridin-3-yl)pyrazolo[1,5-a]pyrimidine-3-carboxamide]	10 to 1000 nM
CC1(N2CCN(c3ccncc3NC(=O)c3c(N)nn4cc(Cl)cnc34)CC2)COC1 [I-N-25, 2-amino-6-chloro-N-(4-(4-(3-methyloxetan-3-yl)piperazin-1-yl)pyridin-3-yl)pyrazolo[1,5-a]pyrimidine-3-carboxamide]	10 to 1000 nM
CN1CCN(c2cc(N)ncc2NC(=O)c2c(N)nn3cc(Cl)cnc23)CC1 [I-N-50, 2-amino-N-(6-amino-4-(4-methylpiperazin-1-yl)pyridin-3-yl)-6-chloropyrazolo[1,5-a]pyrimidine-3-carboxamide]	10 to 1000 nM
CCN1CCN(C(=O)C2CCN(c3c(F)cncc3NC(=O)c3c(N)nn4cc(F)cnc34)CC2)CC1 [I-G-9, 2-amino-N-(4-(4-(4-ethylpiperazine-1-carbonyl)piperidin-1-yl)-5-fluoropyridin-3-yl)-6-fluoropyrazolo[1,5-a]pyrimidine-3-carboxamide]	10 to 1000 nM
N#CCc1cnc2c(C(=O)Nc3cnccc3N3CCCCC3)c(N)nn2c1 [I-N-84, 2-amino-6-(cyanomethyl)-N-(4-(piperidin-1-yl)pyridin-3-yl)pyrazolo[1,5-a]pyrimidine-3-carboxamide]	< 10 nM

Second part, the compound after the results:

Ki	Compound
10 to 1000 nM	Nc1nn2cc(F)cnc2c1C(=O)Nc1cncc(F)c1N1CCCCC1 [I-N-270, 2-amino-6-fluoro-N-(5-fluoro-4-(piperidin-1-yl)pyridin-3-yl)pyrazolo[1,5-a]pyrimidine-3-carboxamide]
10 to 1000 nM	Nc1nn2cc(F)cnc2c1C(=O)Nc1cncc(F)c1N1CCC(OCCN2CCCC2)CC1 [I-N-167, 2-amino-6-fluoro-N-(5-fluoro-4-(4-(2-(pyrrolidin-1-yl)ethoxy)piperidin-1-yl)pyridin-3-yl)pyrazolo[1,5-a]pyrimidine-3-carboxamide]
10 to 1000 nM	Nc1nn2cc(F)cnc2c1C(=O)Nc1cncc(F)c1N1CCC(S(=O)(=O)N2CCN3CCC2CC3)CC1 [I-N-273, N-(4-(4-(1,4-diazabicyclo[3.2.2]nonan-4-ylsulfonyl)piperidin-1-yl)-5-fluoropyridin-3-yl)-2-amino-6-fluoropyrazolo[1,5-a]pyrimidine-3-carboxamide]
10 to 1000 nM	CCN1CCCCC1C(=O)N1CCN(c2c(F)cncc2NC(=O)c2c(N)nn3cc(F)cnc23)CC1 (stereo not shown) [I-N-204, 2-amino-N-(4-(4-(1-ethylpiperidine-2-carbonyl)piperazin-1-yl)-5-fluoropyridin-3-yl)-6-fluoropyrazolo[1,5-a]pyrimidine-3-carboxamide]
10 to 1000 nM	CN1CCC[C@@H]1COc1ccncc1NC(=O)c1c(N)nn2cc(Cl)cnc12 [I-O-49, (R)-2-amino-6-chloro-N-(4-((1-methylpyrrolidin-2-yl)methoxy)pyridin-3-yl)pyrazolo[1,5-a]pyrimidine-3-carboxamide]
10 to 1000 nM	CN1CCOC(C(=O)N2CCN(c3c(F)cncc3NC(=O)c3c(N)nn4cc(F)cnc34)CC2)C1 (stereo not shown) [I-N-174, 2-amino-6-fluoro-N-(5-fluoro-4-(4-(4-methylmorpholine-2-carbonyl)piperazin-1-yl)pyridin-3-yl)pyrazolo[1,5-a]pyrimidine-3-carboxamide]
10 to 1000 nM	COCC1CCN(c2ccncc2NC(=O)c2c(N)nn3cc(F)cnc23)CC1 [I-N-282, 2-amino-6-fluoro-N-(4-(4-(methoxymethyl)piperidin-1-yl)pyridin-3-yl)pyrazolo[1,5-a]pyrimidine-3-carboxamide]
10 to 1000 nM	Nc1nn2cc(F)cnc2c1C(=O)Nc1cnccc1N1CCS(=O)(=O)CC1 [I-N-210, 2-amino-N-(4-(1,1-dioxidothiomorpholino)pyridin-3-yl)-6-fluoropyrazolo[1,5-a]pyrimidine-3-carboxamide]
10 to 1000 nM	CS(=O)(=O)N1CCN(c2ccncc2NC(=O)c2c(N)nn3cc(F)cnc23)CC1 [I-N-178, 2-amino-6-fluoro-N-(4-(4-(methylsulfonyl)piperazin-1-yl)pyridin-3-yl)pyrazolo[1,5-a]pyrimidine-3-carboxamide]
10 to 1000 nM	Cc1ccn(-c2ccncc2NC(=O)c2c(N)nn3cc(F)cnc23)n1 [I-N-225, 2-amino-6-fluoro-N-(4-(3-methyl-1H-pyrazol-1-yl)pyridin-3-yl)pyrazolo[1,5-a]pyrimidine-3-carboxamide]
10 to 1000 nM	N#C[C@@H]1CCN(c2c(Cl)cncc2NC(=O)c2c(N)nn3cc(F)cnc23)C1 [I-N-285, (R)-2-amino-N-(5-chloro-4-(3-cyanopyrrolidin-1-yl)pyridin-3-yl)-6-fluoropyrazolo[1,5-a]pyrimidine-3-carboxamide]
10 to 1000 nM	Nc1nn2cc(F)cnc2c1C(=O)Nc1cncc(F)c1N1CCN(C(=O)C2CCOC2)CC1 (stereo not shown) [I-N-274, 2-amino-6-fluoro-N-(5-fluoro-4-(4-(tetrahydrofuran-3-carbonyl)piperazin-1-yl)pyridin-3-yl)pyrazolo[1,5-a]pyrimidine-3-carboxamide]
